{
  "source": "the NIST ThermoML archive (doi:10.1016/j.jct.2016.08.031)",
  "details": "Liquid, Closed cell (Static) method",
  "note": "± gives the expanded uncertainty stated by the source.",
  "data": [
    {"smiles": "CC(C)C", "note": "[2-methylpropane]", "values": [
      {"measurement": "vapor or sublimation pressure", "setting": "303.15 K", "value": "404.5 ± 1.2", "unit": "kPa"},
      {"measurement": "vapor or sublimation pressure", "setting": "313.15 K", "value": "530.9 ± 1.3", "unit": "kPa"},
      {"measurement": "vapor or sublimation pressure", "setting": "323.15 K", "value": "684.6 ± 1.4", "unit": "kPa"},
      {"measurement": "vapor or sublimation pressure", "setting": "333.15 K", "value": "869 ± 1.7", "unit": "kPa"},
      {"measurement": "vapor or sublimation pressure", "setting": "343.15 K", "value": "1087.4 ± 1.9", "unit": "kPa"},
      {"measurement": "vapor or sublimation pressure", "setting": "353.15 K", "value": "1343.4 ± 2.3", "unit": "kPa"}
    ]},
    {"smiles": "F/C=C\\C(F)(F)F", "note": "[(Z)-1,3,3,3-tetrafluoro-1-propene]", "values": [
      {"measurement": "vapor or sublimation pressure", "setting": "303.15 K", "value": "210.6 ± 1.1", "unit": "kPa"},
      {"measurement": "vapor or sublimation pressure", "setting": "313.15 K", "value": "290.7 ± 1.1", "unit": "kPa"},
      {"measurement": "vapor or sublimation pressure", "setting": "323.15 K", "value": "391.8 ± 1.2", "unit": "kPa"},
      {"measurement": "vapor or sublimation pressure", "setting": "333.15 K", "value": "517.4 ± 1.3", "unit": "kPa"},
      {"measurement": "vapor or sublimation pressure", "setting": "343.15 K", "value": "671.3 ± 1.4", "unit": "kPa"},
      {"measurement": "vapor or sublimation pressure", "setting": "353.15 K", "value": "859.2 ± 1.6", "unit": "kPa"}
    ]}
  ]
}
